Columns and labels:
PANC1 or PANC2.13 = experiment: Established subcutaneous human pancreatic xenograft tumors; type: in vivo, mouse
Procedure: (§1) The drug was daily administrated into either NOD-SCID or athymic nude mice by oral gavages (OG) at 1 mg/kg or intraperitoneal (I.P) injection at 0.5 mg/kg. 10% DMSO, 10% cremophor, and 80% saline solutions were used as the solvent and vehicle control.

[1] = test system: K-Ras^G12V-induced papillomas; experiment: K-Ras^G12V-induced papilloma in LRIG1cre/ER/LSL-Ras^G12V GEMM; type: in vivo, mouse
Source text: We first used a papilloma model driven by H- or K-Ras^G12V under the control of a skin stem cell promoter, Lrig1 (FIG. 7C) (Jaks et al., Exp Cell Res 316:1422-1428, 2010; Page et al., Cell Stem Cell 13, 471-482, 2013). In this GEMM, tamoxifen inducible Cre recombinase initiates the expression of oncogenic H- or K-Ras^G12V, and the enforced oncogenic Ras expression disrupts the skin hemeostasis during wound healing and further induces papilloma formations (FIG. 7C).
Lrig1 Cre/ER/LSL Hras and Lrig1 Cre/ER/LSL-Kras^G12D mice have been backcrossed into the FVB/N background over multiple generations to minimize the effects of genetic heterogeneity on tumor development. Cre recombinase was activated in both groups of mice by administering a single dose of 4oht (Tamoxifen), topically applied at 8 weeks of age. On day 7 thereafter, wounding was induced on their backs by cutting a 2 cm incision for papilloma development.

Fzd8 = Fzd8 mRNA expression in PANC1 and PANC2.13 (qPCR); type: cell-based; conditions: human pancreatic cancer cells (FIG. 13B)
Procedure: (§2) Total RNAs were isolated and purified using QIAGEN RNAeasy kit. 1 μg RNA per specimen was reverse transcribed into cDNA using SuperScript™ First-Strand Synthesis System for RT-PCR (Invitrogen). Possible contamination of genomic DNA was excluded by treatments of DNase I. Quantitative real-time PCR array analysis was performed using SYBR Green (Applied Biosystem). Fold differences and statistical analysis were calculated using the GraphPad Prism 4.00 for Windows (GraphPad Software). The mouse Stem Cell Signaling RT^2Profiler PCR array on 96-well plate (PAMM-047Z) was purchased from SABiosciences.

[2] = PKC activators, literature; cited from earlier work
[3] = test system: PANC2.13 and PANC2.03 orthotopic tumors; experiment: Established orthotopic human pancreatic tumors, burden by human cfDNA in plasma; type: in vivo, mouse; conditions: treatment from 14th day post-implantation, over time (FIG. 7B)
Procedure: as §1
All blood samples were collected in K2EDTA containing tubes (BD Microtainer, Ref 365974) and centrifuged at 1,500 g for 10 min. Then the supernatants were carefully collected from the top portion of the plasma to eliminate the possibility of cell contaminations. The plasma was stored at −80° C. until further use. The cfDNA was extracted from 100 μL of plasma using NucleoSpin Plasma XS kit (Macherey-Nagel; 740900).
Nucleic acid concentrations in all plasma samples were measured by quantitative polymerase chain reaction (PCR) using the AB7900HT (Applied Biosystems, Foster City, CA, USA) and TaqMan Universal PCR Master Mix (Applied Biosystems) according to the manufacturer's protocol. For quantification of human β-actin genomic DNA in mouse plasma samples, the following custom primers and probe sets were used: […]

[4] = test system: Ras^V12-transformed NIH/3T3 cells; experiment: Drug sensitization assay (MTS cell viability), Ras-transformed NIH/3T3; type: cell-based, mouse
Procedure: (§3) The dead cells were removed, and MTS assay (Promega, G5430) was performed for determining the percentage of viable cells, according to the manufacturer's instructions. DMSO was used as vehicle control and for normalization.

Rasless MEFs = experiment: Cell viability of rescued Rasless MEFs; type: cell-based, mouse
Procedure: as §3

[5] = test system: PANC2.13 and PANC1 orthotopic tumors; experiment: Prevention of orthotopic human pancreatic tumors in NOD-SCID mice; type: in vivo, mouse
Procedure: as §1

HIV-1 = conditions: cited from earlier work
LEF1 = LEF1 mRNA expression in PANC1 and PANC2.13 (qPCR); type: cell-based; conditions: human pancreatic cancer cells (FIG. 13B)
Procedure: as §2

PANC1 and PANC2.13 = experiment: Morphology, viability and proliferating rate of human pancreatic cancer cell lines; type: cell-based
Procedure: as §3

CaMKii = experiment: Western blot of phospho-CaMKii in rescued Rasless MEFs; type: cell-based, mouse
Procedure: Experimental cells were washed twice in ice-cold PBS and lysed in 1% Triton lysis buffer [25 mmol/L Tris pH 7.5, 150 mmol/L NaCl, 1% Triton X-100, 1 mmol/L EDTA, 1 mmol/L EGTA, 20 mmol/L NaF, 1 mmol/L […], and 1 mmol/L DTT] supplemented with a protease inhibitor cocktail (Roche) and cleared by centrifugation. Protein concentrations were determined by the Bio-Rad Protein Assay (Bio-Rad). Equal amounts of protein extracts were resolved using SDS-PAGE (NuPAGE; Invitrogen), transferred to a nitrocellulose membrane, and immunoblotted with primary antibodies indicated, followed by secondary antibodies labeled with either IRDye800 (Rockland) or Alexa Fluor 680 (Molecular Probes) and were visualized using a LI-COR Odyssey scanner. A complete list of primary antibodies is provided in the Extended Experimental Procedures.

[6] = Rasless MEFs rescued with H-Ras^V12 (FIG. 13C)
[7] = Rasless MEFs rescued with K-Ras(4B)^V12 (FIG. 13C)
[8] = human pancreatic cancer cells (FIG. 14A right)

With `CC(=O)O[C@@]12C[C@@H](C)[C@@]3(O)C(C=C(CO)C[C@]4(O)C(=O)C(C)=C[C@@H]34)[C@@H]1C2(C)C` (stereo partly shown) [prostratin, 12-deoxyphorbol-13-acetate] the “expression of cleaved caspase 3 in subcutaneous tumors” value (PANC1 or PANC2.13; FIG. 14D) was “enhanced expression of cleaved caspase 3”, the “growth rate of established subcutaneous tumors” value (PANC1 or PANC2.13; daily oral treatment from 10 to 14 days post-injection, vs vehicle (FIG. 7A)) was “significantly reduced growth rate” and the “EMT markers (E-cadherin, vimentin) in K-Ras^G12V-driven skin tumors” value ([1]; FIG. 7E) was “maintained strong expression of epithelial maker”. For the same compound, the “growth rate of K-Ras^G12V-induced papillomas” value ([1]; FIG. 14E) was “significantly slowed down the growth rate”, the “formation of papillomas driven by K-Ras^G12V” value ([1]; daily treatment (FIG. 7D)) was “significantly delayed/reduced the formation of papillomas” and the “expression of Fzd8” value (Fzd8) was “increased expression of Fzd8”. For the same compound, the tumor promotion [2] was “far less potent for tumor promotion”, the “concentration of human specific cfDNA” value [3] was “dramatically decreased” and the “sensitivity to prostratin (cell viability)” value ([4]; H-Ras^V12 or K-Ras^V12-S181D-transformed NIH/3T3 cells (FIG. 5J)) was “but not H-Ras^V12 or K-Ras^V12-S181D, -transformed NIH/3T3 cells, were sensitive to prostratin”. For the same compound, the cell viability ([4]; K-Ras^V12-transformed NIH/3T3 cells (FIG. 5J)) was “dramatically reduced cell viability”, the cell viability response (Rasless MEFs; [6]) was “minimal responses” and the cell viability (Rasless MEFs; [7]) was “decreased cell viability”. The “sizes of orthotopic tumors by BLI” value ([5]; FIG. 6E and FIG. 14B) was “dramatically reduced the sizes of orthotopic tumors”, the “metastasis to the peritoneum” value ([5]; FIG. 6E and FIG. 14C) was “reduced metastasis to the peritoneum” and the “formation of primary tumors in the pancreas (H&E staining)” value ([5]; FIG. 6F and FIG. 14B) was “most of prostratin treated mice did not show formation of primary tumors in the pancreas”. The “Ki67 in orthotopic tumors” value ([5]; FIG. 6G and FIG. 14B) was “much lower Ki67”, the “tumor burden in the orthotopic sites” value ([5]; NOD-SCID mice, daily oral treatment, vs control) was “lower tumor burden” and the CD4 receptor (HIV-1; literature) was “down-regulating the CD4 receptor”. The “reactivation of latent HIV-1” value (HIV-1; memory CD4+ T cells that harbor latent proviruses) was “reactivates HIV-1”, the “expression of β-catenin targeted gene LEF1” value (LEF1) was “reduced the expressions of β-catenin targeted gene, LEF1” and the cell morphology (PANC1 and PANC2.13; human pancreatic cancer cell lines with mutant K-Ras (FIG. 14A left)) was “cell morphological changes phenocopying those observed with knock-down of K-Ras or over-expression of Fzd8”. The cell viability (PANC1 and PANC2.13; [8]) was “significantly reduced cell viability”, the proliferating rate (PANC1 and PANC2.13; [8]) was “significantly reduced” and the phospho-CaMKii response (CaMKii; [6]) was “minimal responses”. For the same compound, the phospho-CaMKii (CaMKii; [7]) was “increased phospho-CaMKii”.
